In patent publication US7049271B2, “Phenyl-substituted 2-enamino-ketonitriles” (Bayer Aktiengesellschaft, priority 2000, dated 2006):

Row | melting point | SMILES
1 | 182 °C | CN/C(=C(/C#N)C(=O)c1ccc(Cl)cc1)c1ccc(Cl)cc1 [Example 3, 2-(4-chlorobenzoyl)-3-(4-chlorophenyl)-3-(N-methylamino)-propenonitrile]
2 | 215 °C | C/C(NC1CC1)=C(\C#N)C(=S)c1ccc(Cl)cc1 [Example 8, 2-[(4-chlorophenyl)-thiocarbonyl]-3-(N-cyclopropylamino)-crotononitrile]
